Measurements reported in PubChem BioAssay (NCI).
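Grown in 96-well plates, cells were treated for 48 hours with each compound at five concentrations. Insufficient inhibition: endpoint recorded as highest concentration tested. At the GI50, growth is halved. At the TGI there is no net growth.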

Key:
Assay in all cases: NCI anticancer screen, dose series, 48 h
[1] = test system: MCF7 breast
[2] = test system: T-47D breast
[3] = test system: SF-295 CNS
[4] = test system: SK-MEL-2 melanoma
[5] = test system: SK-MEL-5 melanoma
[6] = test system: IGROV1 ovarian
[7] = test system: SK-MEL-28 melanoma
[8] = test system: NCI-H23 lung
[9] = test system: NCI-H522 lung
[10] = test system: MOLT-4 leukemia
[11] = test system: CCRF-CEM leukemia
[12] = test system: EKVX NSCLC
[13] = test system: A549 NSCLC
[14] = test system: MALME-3M melanoma
[15] = test system: DU-145 prostate
[16] = test system: A498 renal
[17] = test system: RPMI-8226 leukemia
[18] = test system: SF-268 CNS
[19] = test system: M14 melanoma
[20] = test system: OVCAR-5 ovarian
[21] = test system: NCI-H460 lung
[22] = test system: CAKI-1 renal
[23] = test system: SN12C renal
[24] = test system: HS 578T breast
[25] = test system: RXF 393 renal
[26] = test system: OVCAR-3 ovarian
[27] = test system: UO-31 renal
[28] = test system: OVCAR-8 ovarian
[29] = test system: COLO 205 colon
[30] = test system: K-562 leukemia
[31] = test system: HL-60(TB) leukemia
[32] = test system: SNB-19 CNS
[33] = test system: UACC-62 melanoma
[34] = test system: LOX IMVI melanoma
[35] = test system: U251 CNS
[36] = test system: KM12 colon
[37] = test system: HCC-2998 colon
[38] = test system: 786-0 renal
[39] = test system: PC-3 prostate
[40] = test system: BT-549 breast
[41] = test system: TK-10 renal
[42] = test system: UACC-257 melanoma
[43] = test system: HOP-62 NSCLC
[44] = test system: HOP-92 NSCLC
[45] = test system: HT29 colon
[46] = test system: SNB-75 CNS
[47] = test system: SW-620 colon
[48] = test system: SR leukemia
[49] = test system: MDA-MB-231 breast
[50] = test system: SF-539 CNS
[51] = test system: OVCAR-4 ovarian
[52] = test system: NCI-H226 lung
[53] = test system: NCI/ADR-RES ovarian
[54] = test system: MDA-MB-435
[55] = test system: HCT-116 colon
[56] = test system: ACHN renal
[57] = test system: HCT-15 colon
[58] = test system: SK-OV-3 ovarian

`Cc1n[nH]c(C)c1-c1c(C)n[nH]c1C` was tested, and the GI50 [1] was 1.66 µM, the TGI [1] was 3.79 µM and the GI50 [2] was 1.91 µM. For the same compound, the TGI [2] was 7.09 µM, the GI50 [3] was 1.81 µM and the TGI [3] was 3.63 µM. The GI50 [4] was 2.32 µM, the TGI [4] was 5.51 µM and the GI50 [5] was 1.74 µM. It also gave a TGI [5] of 3.18 µM, a GI50 [6] of 1.8 µM and a TGI [6] of 4.3 µM. It also gave a GI50 [7] of 1.8 µM, a TGI [7] of 3.49 µM and a GI50 [8] of 1.74 µM. It also gave a TGI [8] of 3.47 µM, a GI50 [9] of 1.66 µM and a TGI [9] of 3.63 µM. It also gave a GI50 [10] of 2.24 µM, a TGI [10] of over 27.3 µM and a GI50 [11] of 1.45 µM. It also gave a TGI [11] of over 100 µM, a GI50 [12] of 1.93 µM and a TGI [12] of 4.96 µM. It also gave a GI50 [13] of 1.68 µM, a TGI [13] of 4.35 µM and a GI50 [14] of 1.7 µM. The TGI [14] was 4.05 µM, the GI50 [15] was 1.99 µM and the TGI [15] was 4.13 µM. The GI50 [16] was 1.82 µM, the TGI [16] was 4.12 µM and the GI50 [17] was 1.87 µM. It also gave a TGI [17] of 7.01 µM, a GI50 [18] of 2.28 µM and a TGI [18] of 6.91 µM. It also gave a GI50 [19] of 2.01 µM, a TGI [19] of 5.12 µM and a GI50 [20] of 2.13 µM. The TGI [20] was 4.85 µM, the GI50 [21] was 1.82 µM and the TGI [21] was 3.85 µM. It also gave a GI50 [22] of 1.54 µM, a TGI [22] of 3.13 µM and a GI50 [23] of 2.21 µM. For the same compound, the TGI [23] was 5.82 µM, the GI50 [24] was 2.26 µM and the TGI [24] was 16.9 µM. It also gave a GI50 [25] of 1.52 µM, a TGI [25] of 3.07 µM and a GI50 [26] of 1.6 µM. The TGI [26] was 3.05 µM, the GI50 [27] was 1.31 µM and the TGI [27] was 2.7 µM. For the same compound, the GI50 [28] was 2.09 µM, the TGI [28] was 9.79 µM and the GI50 [29] was 1.92 µM. For the same compound, the TGI [29] was 4.23 µM, the GI50 [30] was 1.94 µM and the TGI [30] was over 35.6 µM. For the same compound, the GI50 [31] was 2.26 µM, the TGI [31] was 6.95 µM and the GI50 [32] was 2.06 µM. For the same compound, the TGI [32] was 5.13 µM, the GI50 [33] was 1.56 µM and the TGI [33] was 3.42 µM. It also gave a GI50 [34] of 1.57 µM, a TGI [34] of 3.06 µM and a GI50 [35] of 1.64 µM. The TGI [35] was 3.76 µM, the GI50 [36] was 1.8 µM and the TGI [36] was 3.97 µM. It also gave a GI50 [37] of 1.96 µM, a TGI [37] of 3.82 µM and a GI50 [38] of 2.37 µM. The TGI [38] was 6.42 µM, the GI50 [39] was 1.51 µM and the TGI [39] was 4.01 µM. The GI50 [40] was 1.97 µM, the TGI [40] was 4.26 µM and the GI50 [41] was 2.89 µM. It also gave a TGI [41] of 7.2 µM, a GI50 [42] of 2.18 µM and a TGI [42] of 5.68 µM. It also gave a GI50 [43] of 2.4 µM, a TGI [43] of 9.11 µM and a GI50 [44] of 1.17 µM. For the same compound, the TGI [44] was 2.99 µM, the GI50 [45] was 2.01 µM and the TGI [45] was 4.81 µM. It also gave a GI50 [46] of 1.7 µM, a TGI [46] of 4.43 µM and a GI50 [47] of 1.87 µM. It also gave a TGI [47] of 4.38 µM, a GI50 [48] of 1.21 µM and a TGI [48] of over 100 µM. For the same compound, the GI50 [49] was 1.83 µM, the TGI [49] was 4.53 µM and the GI50 [50] was 1.73 µM. The TGI [50] was 3.35 µM, the GI50 [51] was 2.28 µM and the TGI [51] was 6.38 µM. For the same compound, the GI50 [52] was 1.77 µM, the TGI [52] was 3.97 µM and the GI50 [53] was 2.19 µM. The TGI [53] was 6.16 µM, the GI50 [54] was 1.93 µM and the TGI [54] was 4.82 µM. The GI50 [55] was 1.48 µM, the TGI [55] was 3.01 µM and the GI50 [56] was 1.52 µM. For the same compound, the TGI [56] was 2.88 µM, the GI50 [57] was 1.83 µM and the TGI [57] was 4.53 µM.

Compound `C=C(CN1CCc2ccccc2C1)c1ccc(C(=O)Nc2cccc(N)c2)cc1` has a GI50 [1] of 17.5 µM, a TGI [1] of 42.8 µM and a GI50 [2] of 27.3 µM. For the same compound, the TGI [2] was over 100 µM, the GI50 [3] was 20 µM and the TGI [3] was 51.2 µM. For the same compound, the GI50 [4] was 23.7 µM, the TGI [4] was 48.4 µM and the GI50 [5] was 13.6 µM. The TGI [5] was 28.3 µM, the GI50 [6] was 16 µM and the TGI [6] was 47.2 µM. The GI50 [7] was 31.1 µM, the TGI [7] was over 100 µM and the GI50 [8] was 19.8 µM. It also gave a TGI [8] of 62.3 µM, a GI50 [9] of 18 µM and a TGI [9] of 40.2 µM. The GI50 [10] was 6 µM, the TGI [10] was 28.6 µM and the GI50 [11] was 16.4 µM. The TGI [11] was over 100 µM, the GI50 [12] was 9.48 µM and the TGI [12] was 56.2 µM. For the same compound, the GI50 [13] was 20.5 µM, the TGI [13] was 61.2 µM and the GI50 [14] was 15.1 µM. The TGI [14] was 34.1 µM, the GI50 [15] was 19 µM and the TGI [15] was 44 µM. For the same compound, the GI50 [16] was 20.5 µM, the TGI [16] was 45.5 µM and the GI50 [17] was 16.3 µM. For the same compound, the TGI [17] was over 100 µM, the GI50 [18] was 19 µM and the TGI [18] was 45.9 µM. The GI50 [19] was 15.4 µM, the TGI [19] was 29.1 µM and the GI50 [20] was 60.9 µM. For the same compound, the TGI [20] was over 100 µM, the GI50 [21] was 19.9 µM and the TGI [21] was 50 µM. The GI50 [22] was 16.3 µM, the TGI [22] was 45.1 µM and the GI50 [23] was 18.8 µM. The TGI [23] was 36.5 µM, the GI50 [24] was 24.7 µM and the TGI [24] was 58.1 µM. It also gave a GI50 [25] of 19.1 µM, a TGI [25] of 43.7 µM and a GI50 [26] of 13.6 µM. It also gave a TGI [26] of 35.3 µM, a GI50 [27] of 16 µM and a TGI [27] of 59.7 µM. For the same compound, the GI50 [28] was 20.6 µM, the TGI [28] was 44.7 µM and the GI50 [29] was 20.7 µM. For the same compound, the TGI [29] was 45.5 µM, the GI50 [30] was 7.53 µM and the TGI [30] was 30 µM. It also gave a GI50 [32] of 35.9 µM, a TGI [32] of over 100 µM and a GI50 [33] of 17.1 µM. It also gave a TGI [33] of 33.3 µM, a GI50 [35] of 22.3 µM and a TGI [35] of 57.4 µM. The GI50 [36] was 16.5 µM, the TGI [36] was 33.7 µM and the GI50 [37] was 17.1 µM. The TGI [37] was 31.9 µM, the GI50 [38] was 17.2 µM and the TGI [38] was 46.6 µM. For the same compound, the GI50 [39] was 21.9 µM, the TGI [39] was over 100 µM and the GI50 [40] was 16.2 µM. It also gave a TGI [40] of 34.4 µM, a GI50 [41] of 27.3 µM and a TGI [41] of 92.5 µM. The GI50 [42] was 14.8 µM, the TGI [42] was 29.7 µM and the GI50 [43] was 25.6 µM. It also gave a TGI [43] of 68.4 µM, a GI50 [44] of 63.9 µM and a TGI [44] of over 100 µM. It also gave a GI50 [58] of 29.5 µM, a TGI [58] of 73.5 µM and a GI50 [45] of 20.4 µM. The TGI [45] was 94.7 µM, the GI50 [46] was 15.6 µM and the TGI [46] was 43 µM. For the same compound, the GI50 [47] was 23 µM, the TGI [47] was 52.1 µM and the GI50 [48] was 11.7 µM. The TGI [48] was 54.8 µM, the GI50 [49] was 18.1 µM and the TGI [49] was 44.8 µM. It also gave a GI50 [50] of 17.4 µM, a TGI [50] of 35.3 µM and a GI50 [52] of 22.3 µM. It also gave a TGI [52] of 50.8 µM, a GI50 [53] of 21.7 µM and a TGI [53] of 76.8 µM. For the same compound, the GI50 [54] was 14 µM, the TGI [54] was 31.9 µM and the GI50 [55] was 16 µM. For the same compound, the TGI [55] was 33.5 µM, the GI50 [56] was 28.8 µM and the TGI [56] was 87.1 µM. For the same compound, the GI50 [57] was 27.4 µM and the TGI [57] was 69.8 µM.
